Where a name gives a salt, the structure may show the parent alone.
Molecular target: T1, purified STEP46 enzyme (Homo sapiens, UniProt P54829)
T1 sequence (P54829 197-565 limits assumed): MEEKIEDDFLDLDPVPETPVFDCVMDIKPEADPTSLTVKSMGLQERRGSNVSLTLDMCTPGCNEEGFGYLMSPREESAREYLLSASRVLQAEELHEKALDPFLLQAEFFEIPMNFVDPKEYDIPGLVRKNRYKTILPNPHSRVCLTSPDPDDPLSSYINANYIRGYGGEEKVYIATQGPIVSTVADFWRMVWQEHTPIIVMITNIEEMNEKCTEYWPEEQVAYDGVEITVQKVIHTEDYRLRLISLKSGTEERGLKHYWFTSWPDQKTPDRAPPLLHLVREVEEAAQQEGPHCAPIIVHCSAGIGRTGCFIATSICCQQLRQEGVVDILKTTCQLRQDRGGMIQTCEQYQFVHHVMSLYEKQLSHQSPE
Experiment: STEP46 biochemical assay (DiFMUP fluorescence phosphatase assay)
Conditions: DiFMUP 10 μM, read-out: STEP IC50
Procedure, shortened: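 Purified human STEP46 preincubated 30 min at room temperature with compounds in Hepes/DTT/Brij35 buffer (2% DMSO final), then reacted with 10 μM DiFMUP for 90 min at 27°C; fluorescence read at 360/460 nm. IC50 from four-parameter fit; activation shown as negative % inhibition at 25, 50, 100 uM.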

Row | IC50 | SMILES
1 | 1000 to 10000 nM | COc1ccc2c(Nc3ccc(C)cn3)nc(-c3cccnc3)nc2c1 [Compound 55]
2 | 1000 to 10000 nM | COC1CN(c2nc(-c3cccnc3)nc3ccc(-c4ccc(F)cc4F)cc23)C1 [Compound 413]
3 | 1000 to 10000 nM | CNc1nc(-c2cccnc2)nc2c(C)c(-c3cc(F)cc(F)c3F)ccc12 [Compound 288]
4 | > 10000 nM | CNc1nc(-c2cccnc2)nc2c(-c3cc(F)cc(F)c3)cccc12 [Compound 277]
5 | < 1000 nM | O=[N+]([O-])c1ccc2c(c1)CCN2c1nc(-c2cccnc2)nc2cc(-c3cccnc3)ccc12 [Compound 106]
6 | < 1000 nM | CNc1nc(-c2cccnc2)nc2ccc(-c3cccc(-c4nccs4)c3)cc12 [Compound 473]
7 | 1000 to 10000 nM | CCOc1ccc2nc(-c3cccnc3)nc(Nc3cc(C)c(F)cn3)c2c1 [Compound 67]
8 | 1000 to 10000 nM | CNc1nc(-c2cnccn2)nc2c(F)c(-c3ccc(F)cc3F)ccc12 [Compound 995]
9 | 1000 to 10000 nM | CNc1nc(-c2cnccn2)nc2ccc(-c3ccc(F)cc3F)c(F)c12 [Compound 976]
10 | < 1000 nM | CNc1nc(-c2cccnc2)nc2c(F)c(-c3ccc(C#N)cc3)ccc12 [Compound 512]
11 | 1000 to 10000 nM | CNc1nc(-c2cccnc2)nc2c(-c3cc(F)cc(OC)c3)ccc(OC)c12 [Compound 498]
12 | > 10000 nM | CN(C)CCCN(C)c1nc(-c2cccnc2)nc2cc(-c3cc(F)ccc3F)ccc12 [Compound 314]
13 | 1000 to 10000 nM | CNc1nc(-c2cccnc2)nc2c(F)c(-c3cccc4sccc34)ccc12 [Compound 538]
14 | 1000 to 10000 nM | [2H]C([2H])([2H])Nc1nc(-c2cccnc2)nc2cc(-c3cc(F)ccc3F)ccc12 [Compound 390]
15 | 1000 to 10000 nM | CNc1nc(-c2cccnc2)nc2cc(-c3cccc(F)c3F)c(F)cc12 [Compound 557]
16 | 1000 to 10000 nM | CNc1nc(-c2cccnc2)nc2ccc(-c3cccc(F)c3F)c(F)c12 [Compound 221]
17 | 1000 to 10000 nM | CNc1nc(-c2cccnc2)nc2c(OC)cc(-c3ccccc3Cl)cc12 [Compound 306]
18 | 1000 to 10000 nM | O=[N+]([O-])c1cccc(-c2ccc3nc(-c4cccnc4)nc(N4CCc5cc(Cl)ccc54)c3c2)c1 [Compound 82]
19 | 1000 to 10000 nM | CNc1nc(-c2cccnc2)nc2c(-c3ccc(F)c(F)c3)ccc(OC)c12 [Compound 496]
20 | 1000 to 10000 nM | CNc1nc(-c2cccnc2)nc2cc(OC(F)(F)F)c(-c3cccc(F)c3)cc12 [Compound 209]
21 | 1000 to 10000 nM | Fc1cccc(-c2ccc3nc(-c4cccnc4)nc(N4CCc5cc(Cl)ccc54)c3c2)c1F [Compound 75]

Row | IC50 | SMILES
22 | 1000 to 10000 nM | CNc1nc(-c2cccnc2)nc2ccc(-c3ccc4c(c3)N(C)C(=O)CO4)cc12 [Compound 467]
23 | 1000 to 10000 nM | CNc1nc(-c2cccnc2)nc2ccc(-c3c(F)cc(F)cc3F)cc12 [Compound 457]
24 | 1000 to 10000 nM | CNc1nc(-c2cccnc2)nc2c(F)c(-c3cccc(C#N)c3)ccc12 [Compound 511]
25 | < 1000 nM | CNc1nc(-c2cccnc2)nc2ccc(-c3ccc4oc(=O)[nH]c4c3)cc12 [Compound 462]
26 | 1000 to 10000 nM | CNc1nc(-c2ccc(F)nc2)nc2cc(-c3cc(F)ccc3F)ccc12 [Compound 156]
27 | 1000 to 10000 nM | CNc1nc(-c2cccnc2)nc2cc(-c3cccc(F)c3C)ccc12 [Compound 324]
28 | 1000 to 10000 nM | CNc1nc(-c2cccnc2)nc2cc(-c3cc(F)ccc3OC)ccc12 [Compound 316]
29 | 1000 to 10000 nM | Fc1ccc(-c2ccc3nc(-c4cccnc4)nc(-c4ncco4)c3c2)c(F)c1 [Compound 425]
30 | 1000 to 10000 nM | Cc1ccc2c(c1)CCN2c1nc(-c2cccnc2)nc2cc(Br)ccc12 [Compound 16]
31 | < 1000 nM | CNc1nc(-c2cccnc2)nc2c(OC)cc(-c3ccc(F)cc3F)cc12 [Compound 195]
32 | 1000 to 10000 nM | CNc1nc(-c2cccnc2C)nc2ccc(-c3cccc(F)c3)cc12 [Compound 220]
33 | < 1000 nM | CNc1nc(-c2cccnc2)nc2c(C)c(-c3ccc4c(cnn4C)c3)ccc12 [Compound 298]
34 | < 1000 nM | CNc1nc(-c2cccnc2)nc2ccc(-c3ccc(F)c4ccoc34)cc12 [Compound 233]
35 | > 10000 nM | CNc1nc(-c2cccnc2)nc2cc(-c3cc(C)oc3C)ccc12 [Compound 276]
36 | > 10000 nM | Fc1ccc(-c2ccc3nc(-c4cccnc4)nc(N4CC(n5cccn5)C4)c3c2)c(F)c1 [Compound 420]
37 | < 1000 nM | CNc1nc(-c2cccnc2)nc2c(F)c(-c3ccc4c(cnn4C)c3)ccc12 [Compound 532]
38 | > 10000 nM | Cn1ccc2c(-c3ccc4nc(-c5cccnc5)nc(NCc5ccccn5)c4c3)cccc21 [Compound 341]
39 | > 10000 nM | CNc1nc(-c2cccnc2)nc2ccc(-c3cccc(CC(N)=O)c3)cc12 [Compound 166]
40 | 1000 to 10000 nM | Cc1ccc2c(c1)CCN2c1nc(-c2cccnc2)nc2ccc(-c3ccc(F)cc3)cc12 [Compound 79]
41 | > 10000 nM | CNc1nc(-c2cccnc2)nc2ccc(-c3ccc(F)cc3C(F)(F)F)cc12 [Compound 248]
42 | 1000 to 10000 nM | CCOc1ccc2nc(-c3cccnc3)nc(Nc3cncc(F)c3)c2c1 [Compound 47]

Row | IC50 | SMILES
43 | 1000 to 10000 nM | CNc1nc(-c2cccnc2)nc2c(OC)cc(-c3ccc(OC)cc3)cc12 [Compound 208]
44 | 1000 to 10000 nM | Clc1ccc2c(c1)CCN2c1nc(-c2cccnc2)nc2cc(-c3ccncc3)ccc12 [Compound 100]
45 | < 1000 nM | CNc1nc(-c2cccnc2)nc2c(F)c(-c3ccc(OC)c(F)c3)ccc12 [Compound 544]
46 | 1000 to 10000 nM | CNc1nc(-c2cccnc2)nc2c(F)c(-c3ccc(F)c(C)c3)ccc12 [Compound 541]
47 | 1000 to 10000 nM | CNc1nc(-c2cccnc2OC)nc2cc(-c3cc(F)ccc3F)ccc12 [Compound 158]
48 | 1000 to 10000 nM | CNc1nc(-c2cccnc2)nc2c(F)c(-c3ccc4sccc4c3)ccc12 [Compound 529]
49 | < 1000 nM | Clc1cncc(Nc2nc(-c3cccnc3)nc3ccc(Cl)cc23)c1 [Compound 70]
50 | 1000 to 10000 nM | Nc1nc(-c2cccnc2)nc2cc(-c3cc(F)c(F)c(F)c3)ccc12 [Compound 312]
51 | > 10000 nM | CNc1nc(-c2cccnc2)nc2ccc(-c3ccc4c(c3)OCCCO4)cc12 [Compound 170]
52 | 1000 to 10000 nM | Brc1ccc2nc(-c3cccnc3)nc(N3CCc4ccccc43)c2c1 [Compound 19]
53 | 1000 to 10000 nM | CNc1nc(-c2cccnc2)nc2cc(-c3cccs3)ccc12 [Compound 319]
54 | < 1000 nM | CNc1nc(-c2cccnc2)nc2cc(-c3cc(F)cc(OC)c3)ccc12 [Compound 279]
55 | > 10000 nM | Fc1ccc(-c2ccc3nc(-c4cccnc4)nc(N4CC(F)(F)C4)c3c2)c(F)c1 [Compound 415]
56 | 1000 to 10000 nM | CC(Nc1nc(-c2cccnc2)nc2cc(-c3cc(F)cc(F)c3)ccc12)c1ccccn1 (stereo not shown) [Compound 370]
57 | 1000 to 10000 nM | CNc1nc(-c2cccnc2)nc2c(F)c(-c3ccco3)ccc12 [Compound 524]
58 | 1000 to 10000 nM | CNc1nc(-c2cccnc2)nc2ccc(OCCCN3CCN(C)CC3)cc12 [Compound 136, N-methyl-6-(3-(4-methylpiperazin-1-yl)propoxy)-2-(pyridin-3-yl)quinazolin-4-amine tetrahydrochloride]
59 | 1000 to 10000 nM | Fc1ccc(-c2ccc3nc(-c4cccnc4)nc(Nc4cccc(F)n4)c3c2)cc1 [Compound 439]
60 | < 1000 nM | COc1ccc2c(c1)CCN2c1nc(-c2cccnc2)nc2ccc(-c3ccc(F)cc3)cc12 [Compound 90]
61 | 1000 to 10000 nM | Fc1ccc(-c2ccc3nc(-c4cccnc4)nc(N4CCc5ccccc54)c3c2)cc1 [Compound 88]
